We go through two molecules from patent US6960582B2, “Guanidino compounds” (Chiron Corporation, priority 2001, dated 2005).

The target in the assay is MC4-R (Homo sapiens, UniProt P32245). Put plainly: cAMP Scintillation Proximity Assay (SPA) in cells expressing MC4-R. The assay is classed as cell-based. Conditions: intercellular cAMP concentration by SPA kit, read-out: in vitro potency (as measured by EC50 value). As to the method:
EC50 values of test compounds were determined by treating cells expressing MC4-R with test compound and lysing the cells and measuring intercellular cAMP concentration with an Amersham-Pharmacia RPA-559 cAMP Scintillation Proximity Assay (SPA) kit. The following compounds were synthesized and tested according to this assay. The following compounds are merely illustrative and should not be construed as limiting of the instant invention.
A general note: SPA uses beads or plates that emit light when radiolabelled molecules are held near them.

As usually defined, the EC50 is the midpoint of the concentration-response curve.

Chain of MC4-R (P32245 whole entry, species assumed): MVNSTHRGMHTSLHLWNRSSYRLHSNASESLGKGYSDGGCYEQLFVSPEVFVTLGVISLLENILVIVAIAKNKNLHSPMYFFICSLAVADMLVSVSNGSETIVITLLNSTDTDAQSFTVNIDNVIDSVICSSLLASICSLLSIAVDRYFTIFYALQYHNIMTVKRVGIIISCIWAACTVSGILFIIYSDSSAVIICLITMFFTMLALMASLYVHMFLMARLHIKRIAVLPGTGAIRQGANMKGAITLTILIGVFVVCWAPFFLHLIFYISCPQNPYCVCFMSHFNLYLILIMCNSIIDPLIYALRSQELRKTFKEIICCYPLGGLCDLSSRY

Consider `Cc1ccc(CCc2nc3ccc(NC(=N[C@H]4C[C@H]5C[C@@H]([C@@H]4C)C5(C)C)N4CCN[C@@H](C)C4)cc3[nH]2)c(C)c1` [Example 24, (3S)-N-{2-[2-(2,4-dimethylphenyl)ethyl]-1H-benzimidazol-6-yl}-3-methyl-N′-[(1S,2S,3S,5R)-2,6,6-trimethylbicyclo[3.1.1]hept-3-yl]piperazine-1-carboximidamide], for which the EC50 is less than 3 µM.
In the case of `C[C@@H]1[C@@H](N=C(Nc2ccc3nc(CCc4ccc(F)cc4Cl)[nH]c3c2)N2CCN[C@@H](C)C2)C[C@H]2C[C@@H]1C2(C)C` [Example 25, (3S)-N-{2-[2-(2-chloro-4-fluorophenyl)ethyl]-1H-benzimidazol-6-yl}-3-methyl-N′-[(1S,2S,3S,5R)-2,6,6-trimethylbicyclo[3.1.1]hept-3-yl]piperazine-1-carboximidamide], the concentration giving a half-maximal response (EC50) was less than 3 µM.
